Laboratory results published in ChEMBL document CHEMBL1201862, “PubChem BioAssay data set” (2004).
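Cells were grown in 96-well plates and exposed to each compound for 48 hours at five concentrations; endpoints were interpolated linearly between bracketing concentrations, or set to the highest concentration if not reached. GI50 is the concentration that inhibits growth by half.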 The source made the active and inactive calls. Cut-off read from the data, not from the text of the source: active = GI50 up to about 1.1 µM and inactive = higher.

How the values were obtained:
Assay in all cases: DTP human tumour cell line panel, 48 h
[1] = tested on: BT-549
[2] = tested on: KM12
[3] = tested on: T47D
[4] = tested on: 786-0
[5] = tested on: M14
[6] = tested on: NCI/ADR-RES
[7] = tested on: HOP-92
[8] = tested on: ACHN
[9] = tested on: SK-MEL-2
[10] = tested on: HOP-62
[11] = tested on: NCI-H23
[12] = tested on: MDA-MB-435
[13] = tested on: IGROV-1
[14] = tested on: UACC-257
[15] = tested on: Malme-3M
[16] = tested on: SK-MEL-5
[17] = tested on: UO-31
[18] = tested on: NCI-H522
[19] = tested on: DU-145
[20] = tested on: SR
[21] = tested on: RXF 393
[22] = tested on: HT-29
[23] = tested on: HCT-116
[24] = tested on: SNB-75
[25] = tested on: A549
[26] = tested on: UACC-62
[27] = tested on: TK-10
[28] = tested on: SW-620
[29] = tested on: COLO 205
[30] = tested on: NCI-H460
[31] = tested on: CAKI-1
[32] = tested on: SK-MEL-28
[33] = tested on: SK-OV-3
[34] = tested on: OVCAR-8
[35] = tested on: Hs-578T
[36] = tested on: HCC 2998
[37] = tested on: CCRF-CEM
[38] = tested on: K562
[39] = tested on: MDA-N
[40] = tested on: OVCAR-3
[41] = tested on: SNB-19
[42] = tested on: OVCAR-5
[43] = tested on: SF-295
[44] = tested on: PC-3
[45] = tested on: RPMI-8226
[46] = tested on: HL-60
[47] = tested on: EKVX
[48] = tested on: NCI-H226
[49] = tested on: MCF7
[50] = tested on: MDA-MB-231
[51] = tested on: OVCAR-4
[52] = tested on: LOX IMVI
[53] = tested on: U-251
[54] = tested on: SF-268
[55] = tested on: A498
[56] = tested on: SN12C
[57] = tested on: HCT-15
[58] = tested on: MOLT-4
[59] = tested on: SF-539

What does the source list for `CN(C)CCCc1cccnc1`?
GI50 [1]: > 100000 nM (inactive); GI50 [2]: > 100000 nM (inactive); GI50 [3]: > 100000 nM (inactive); GI50 [4]: > 100000 nM (inactive); GI50 [5]: > 100000 nM (inactive); GI50 [6]: > 100000 nM (inactive); GI50 [7]: > 100000 nM (inactive); GI50 [8]: > 100000 nM (inactive); GI50 [9]: > 100000 nM (inactive); GI50 [10]: > 100000 nM (inactive); GI50 [11]: > 100000 nM (inactive); GI50 [12]: > 100000 nM (inactive); GI50 [13]: > 100000 nM (inactive); GI50 [14]: > 100000 nM (inactive); GI50 [15]: > 100000 nM (inactive); GI50 [16]: > 100000 nM (inactive); GI50 [17]: > 100000 nM (inactive); GI50 [18]: > 100000 nM (inactive); GI50 [19]: > 100000 nM (inactive); GI50 [20]: > 100000 nM (inactive); GI50 [21]: > 100000 nM (inactive); GI50 [22]: > 100000 nM (inactive); GI50 [23]: > 100000 nM (inactive); GI50 [24]: 41700 nM (inactive); GI50 [25]: > 100000 nM (inactive); GI50 [26]: > 100000 nM (inactive); GI50 [27]: > 100000 nM (inactive); GI50 [28]: > 100000 nM (inactive); GI50 [29]: > 100000 nM (inactive); GI50 [30]: > 100000 nM (inactive); GI50 [31]: > 100000 nM (inactive); GI50 [32]: > 100000 nM (inactive); GI50 [33]: > 100000 nM (inactive); GI50 [34]: > 100000 nM (inactive); GI50 [35]: > 100000 nM (inactive); GI50 [36]: > 100000 nM (inactive); GI50 [37]: > 100000 nM (inactive); GI50 [38]: > 100000 nM (inactive); GI50 [39]: > 100000 nM (inactive); GI50 [40]: > 100000 nM (inactive); GI50 [41]: > 100000 nM (inactive); GI50 [42]: > 100000 nM (inactive); GI50 [43]: > 100000 nM (inactive); GI50 [44]: > 100000 nM (inactive); GI50 [45]: > 100000 nM (inactive); GI50 [46]: > 100000 nM (inactive); GI50 [47]: > 100000 nM (inactive); GI50 [48]: > 100000 nM (inactive); GI50 [49]: > 100000 nM (inactive); GI50 [50]: > 100000 nM (inactive); GI50 [51]: > 100000 nM (inactive); GI50 [52]: > 100000 nM (inactive); GI50 [53]: > 100000 nM (inactive); GI50 [54]: > 100000 nM (inactive); GI50 [55]: > 100000 nM (inactive); GI50 [56]: > 100000 nM (inactive); GI50 [57]: > 100000 nM

What does the source list for `CC[C@@]1(O)C[C@H](OC2CC(N(C)C)C(O)C(C)O2)c2c(O)c3c(c(O)c2[C@H]1OC1CC(N(C)C)C(O)C(C)O1)C(=O)c1cccc(O)c1C3=O` (stereo not given in full)?
GI50 [1]: 41 nM (active); GI50 [2]: 28 nM (active); GI50 [3]: 60 nM (active); GI50 [4]: 19.6 nM (active); GI50 [5]: 35.7 nM (active); GI50 [6]: 177 nM (active); GI50 [7]: 71 nM (active); GI50 [9]: 22.7 nM (active); GI50 [10]: 40.4 nM (active); GI50 [11]: 57 nM (active); GI50 [12]: 34.1 nM (active); GI50 [13]: 70.6 nM (active); GI50 [14]: 146 nM (active); GI50 [15]: 42.4 nM (active); GI50 [16]: 32.3 nM (active); GI50 [17]: 27.5 nM (active); GI50 [18]: 14.4 nM (active); GI50 [19]: 182 nM (active); GI50 [20]: 38.5 nM (active); GI50 [21]: 25.5 nM (active); GI50 [22]: 22.4 nM (active); GI50 [23]: 24.7 nM (active); GI50 [24]: 19.5 nM (active); GI50 [25]: 30.6 nM (active); GI50 [26]: 25.3 nM (active); GI50 [27]: 47.3 nM (active); GI50 [28]: 37.8 nM (active); GI50 [29]: 32.1 nM (active); GI50 [30]: 18 nM (active); GI50 [31]: 19.5 nM (active); GI50 [32]: 37.3 nM (active); GI50 [33]: 39.7 nM (active); GI50 [34]: 27.4 nM (active); GI50 [35]: 57.7 nM (active); GI50 [36]: 28.4 nM (active); GI50 [37]: 68.7 nM (active); GI50 [38]: 26.7 nM (active); GI50 [39]: 36.3 nM (active); GI50 [40]: 51 nM (active); GI50 [41]: 40 nM (active); GI50 [42]: 83.8 nM (active); GI50 [43]: 40 nM (active); GI50 [44]: 36.1 nM (active); GI50 [58]: 81.7 nM (active); GI50 [45]: 40.9 nM (active); GI50 [46]: 86.9 nM (active); GI50 [47]: 98.4 nM (active); GI50 [48]: 21.9 nM (active); GI50 [49]: 32.1 nM (active); GI50 [50]: 34.1 nM (active); GI50 [51]: 40.9 nM (active); GI50 [52]: 20.8 nM (active); GI50 [53]: 26.4 nM (active); GI50 [54]: 60.3 nM (active); GI50 [55]: 12 nM (active); GI50 [56]: 54 nM (active); GI50 [59]: 53.1 nM (active); GI50 [57]: 58.5 nM
